Measurements from patent US20220289708A1, “SUBSTITUTED N-PHENYL URACILS, SALTS THEREOF AND THEIR USE AS HERBICIDAL AGENTS” (Bayer Aktiengesellschaft, priority 2019, published 2022).

Columns and labels:
Test in all cases: Post-emergence herbicidal action
Format in all cases: in vivo
Amaranthus retroflexus = settings: application rate 20 g/ha, rated visually after about 3 weeks vs untreated controls
Method: (§1) a. Post-Emergence Herbicidal Action and Crop Plant Compatibility Seeds of monocotyledonous and dicotyledonous weeds and crop plants were placed in sandy loam in plastic or wood-fiber pots, covered with soil and cultivated in a greenhouse under controlled growth conditions. 2 to 3 weeks after sowing, the test plants were treated at the one-leaf stage. The compounds of the invention, formulated in the form of wettable powders (WP) or as emulsion concentrates (EC), were then sprayed onto the green parts of the plants as aqueous suspension or emulsion with addition of 0.5% additive at a water application rate of 600 l/ha (converted). After the test plants had been kept in the greenhouse under optimum growth conditions for about 3 weeks, the activity of the preparations was rated visually in comparison to untreated controls. For example, 100% activity=the plants have died, 0% activity=like control plants. Tables A1 to A15 below show the effects of selected compounds of the general formula (I) according to Tables I.1 to I.36 on various harmful plants and at an application rate corresponding to 20 g/ha and less, which were obtained by the experimental procedure mentioned above.

Abutilon theophrasti = settings: application rate 20 g/ha, rated visually after about 3 weeks vs untreated controls
Method: as §1

Alopecurus myosuroides = settings: application rate 20 g/ha, rated visually after about 3 weeks vs untreated controls
Method: as §1

Echinochloa crus-galli = settings: application rate 20 g/ha, rated visually after about 3 weeks vs untreated controls
Method: as §1

Digitaria sanguinalis = settings: application rate 20 g/ha, rated visually after about 3 weeks vs untreated controls
Method: as §1

Matricaria inodora = settings: application rate 20 g/ha, rated visually after about 3 weeks vs untreated controls
Method: as §1

Setaria viridis = settings: application rate 20 g/ha, rated visually after about 3 weeks vs untreated controls
Method: as §1

Polygonum convolvulus = settings: application rate 20 g/ha
Method: as §1

Avena fatua = settings: application rate 20 g/ha, rated visually after about 3 weeks vs untreated controls
Method: as §1

Pharbitis purpurea = settings: application rate 20 g/ha, rated visually after about 3 weeks vs untreated controls
Method: as §1

Lolium rigidum = settings: application rate 20 g/ha, rated visually after about 3 weeks vs untreated controls
Method: as §1

Viola tricolor = settings: application rate 20 g/ha
Method: as §1

Veronica persica = settings: application rate 20 g/ha
Method: as §1

Row | Structure (SMILES) | Amaranthus retroflexus (efficacy in %) (Amaranthus retroflexus) | Abutilon theophrasti (efficacy in %) (Abutilon theophrasti) | Alopecurus myosuroides (efficacy in %) (Alopecurus myosuroides) | Echinochloa crus-galli (efficacy in %) (Echinochloa crus-galli) | Digitaria sanguinalis (efficacy in %) (Digitaria sanguinalis) | Matricaria inodora (efficacy in %) (Matricaria inodora) | Setaria viridis (efficacy in %) (Setaria viridis) | Polygonum convolvulus (efficacy in %) (Polygonum convolvulus) | Avena fatua (efficacy in %) (Avena fatua) | Pharbitis purpurea (efficacy in %) (Pharbitis purpurea) | Lolium rigidum (efficacy in %) (Lolium rigidum) | Viola tricolor (efficacy in %) (Viola tricolor) | Veronica persica (efficacy in %) (Veronica persica)
1 | Cn1c(C(F)(F)F)cc(=O)n(-c2cc(Oc3cccnc3OCC(=O)OCC3OCCO3)c(Br)cc2F)c1=O [I.16-424] | 100% | 100% | 100% | 100% | 100% | 100% | 100% | 100% | 90% | 100% | 80% | 100% | 100%
2 | Cn1c(C(F)(F)F)cc(=O)n(-c2cc(Oc3cccnc3OCC(=O)OCC#N)c(Br)cc2F)c1=O [I.16-176] | 100% | 100% | 100% | 100% | 100% | 100% | 100% | 90% | 90% | 100% | 80% | 100% | 100%
3 | COCCOC(=O)COc1ncc(F)cc1Oc1cc(-n2c(=O)cc(C(F)(F)F)n(C)c2=O)c(F)cc1Cl [I.36-1] | 100% | 100% | 100% | 100% | 100% | 100% | 100% | 100% | 100% | 100% | 90% | 100% | 100%
4 | Cc1nn(C)cc1COC(=O)COc1ncccc1Oc1cc(-n2c(=O)cc(C(F)(F)F)n(C)c2=O)c(F)cc1Cl [I.15-366] | 100% | 100% | 100% | 100% | 100% | 100% | 100% | – | 90% | 100% | 90% | 100% | 100%
5 | CCOCCOC(=O)COc1ncccc1Oc1cc(-n2c(=O)cc(C(F)(F)F)n(C)c2=O)c(F)cc1Cl [I.15-2] | 100% | 100% | 100% | 100% | 100% | 100% | 100% | 100% | 90% | 100% | 90% | 100% | 100%
6 | CCn1cc(COC(=O)COc2ncccc2Oc2cc(-n3c(=O)cc(C(F)(F)F)n(C)c3=O)c(F)cc2Cl)c(C)n1 [I.15-368] | 100% | 100% | 100% | 100% | 100% | 100% | 100% | – | 100% | 100% | 90% | 100% | 100%
7 | COCCOCCOC(=O)COc1ncccc1Oc1cc(-n2c(=O)cc(C(F)(F)F)n(C)c2=O)c(F)cc1C#N [I.35-23] | 100% | 100% | 100% | 100% | 100% | 100% | 100% | – | 90% | 100% | – | 100% | 100%
8 | COCCOCCOC(=O)COc1ncc(F)cc1Oc1cc(-n2c(=O)cc(C(F)(F)F)n(C)c2=O)c(F)cc1Cl [I.36-23] | 100% | 100% | 100% | 100% | 100% | 100% | 100% | 90% | – | 100% | 90% | 100% | 100%
9 | Cc1c(COC(=O)COc2ncccc2Oc2cc(-n3c(=O)cc(C(F)(F)F)n(C)c3=O)c(F)cc2Cl)cnn1C [I.15-367] | 100% | 100% | 100% | 100% | 100% | 100% | 100% | – | 90% | 100% | 80% | 100% | 100%
